Measured values published in PMC9381536, “Non-apoptotic cell death induction via sapogenin based supramolecular particles” (Scientific Reports, 2022).
pIC50: −log10 of the molar value.

What was measured:
[1] = Measurement of particle diameter via Zeta Sizer; type: physicochemical; settings: PBS, DLS
Description: AG-08 was dissolved in DMSO a 1000-fold concentrated stock and added into the filtered PBS. Then particle diameter was immediately measured via zeta-sizer (DLS–Particulate Systems). Measurement was repeated in triplicate.

HCC1937 = system: HCC1937; parameters: method as in PMID 33136369; settings: cited from earlier work
Calnexin = Calnexin immunofluorescence; type: cell-based; settings: AG-08 treated cells
From the text: (§1) Figure 3 mRNA microarray analysis was used to identify differentially expressed genes via AG-08 treatment. (A) Heatmap representing the expressions of 193 genes with significant different expression in AG-08 treated cells compared with control. Heatmap was generated by GraphPad Prism version 8 (https://www.graphpad.com/scientific-software/prism/). (B) Protein–protein network analysis was formed via STRING. The thickness of the connecting lines indicates the strength of data support for physical and/or functional associations. (C) Pathway enrichment was determined using GO, KEGG, and Reactome pathway analysis. […] Size of circle represents the significance of enrichment. (D) The protein levels of CHOP were determined via IB. 0.5 µg/ml tunicamycin (Tun) was used as positive control. The experiments were repeated three times independently; with one representative result shown. (E) mRNA level of the CHOP was investigated using quantitative PCR (q-RTPCR). Error bars represent standard error (s.e.). p-values were calculated with respect to vehicle-treated cells by one-way Anova test. (**p < 0.005, ****p < 0.0001). (F) The expression and localization of Calnexin protein were evaluated using immunofluorescence via anti-Calnexin antibody (scale bar 25 µm).
Cells were grown on glass coverslips and treated with AG-08. […] Mounted samples were analyzed by fluorescence microscopy (Olympus IX70, Japan).

CHOP = CHOP expression (immunoblot, q-RTPCR); type: cell-based
From the text: as §1
The total RNA was isolated using Total RNA Isolation Kit (Bio-Rad, US) following the manufacturer’s instructions. cDNAs were synthesized using The iScript cDNA synthesis kit (Bio-Rad, US) according to the manufacturer’s instructions. To gene expression analysis, specific primers were designed against CHOP (forward: […], reverse: […] ). Quantitative RT-PCR (qRT-PCR) was performed using The SYBR Green I Mastermix (Bio-Rad, US) and LightCycler480 thermocycler (Roche). […] For relative quantification, reaction efficiency incorporated ΔΔCq formula was used. […]
Cell lysates were prepared by RIPA buffer (1XPBS, 1% nonidet P-40, 0.5% sodium deoxycholate, and 0.1% SDS, pH 8.0). Protein concentrations were determined by bicinchoninic acid (BCA) protein assay (Thermo Fisher Scientific, US). […]

HCC1937 cells = assay: Cytotoxicity of 220 nm filtrates; type: cell-based
Description: Figure 1 AG-08 mediated cytotoxicity relies on the supramolecular structures. (A) Structure of AG-08. (B) The scanning transmission electron micrograph of 16 µM AG-08 in PBS. Figure is a representative image of stained sample with uranyl acetate (5683 × magnification; scale bar 600 nm). (C) After 3 h incubation of Nile red solution with AG-08 or AG, fluorescence intensity of Nile red was measured. (D) AG-08, Staurosporine (Sta) or vehicle samples prepared in the cell condition medium was filtrated by 220 nm filter and HCC1937 cells were exposed to the filtrates. After 24 h, the viability of cells was measured and represented as a percentage of that of the vehicle control. The error bars represent mean value ± s.d. (n = 3). *p < 0.05, **p < 0.005, ***p < 0.001. (E) Tween 20 (1:40,000) was added to the fresh medium before addition of 8 μM AG-08 or vehicle. Then cell medium was replaced with this fresh medium. Cell viability was detected after 24 h incubation. […] TEXT PRINTED IN THE PICTURE: (F) no label printed: Diameter: 153.2±4.6; polydispersity index: 0.218
To verify that the activity of AG-08 arises from its supramolecular structures, freshly prepared AG-08 solutions were filtered using 220 nm-filters to remove AG-08 supramolecular particles from medium, and the filtrates were analyzed for their cytotoxicity. […] Next, Tween-20 was utilized as a non-ionic detergent to block particle formation, and AG-08-mediated cell death was inhibited as expected (Fig. 1E). […]

SMILES: Cc1ccc(S(=O)(=O)OC2CCC3(C)C4=CCC5(C)C(C6(C)CCC(C(C)(C)O)O6)C(O)CC5(C)C4C=CC3C2(C)C)cc1 (centres unmarked) [AG-08]
- Diameter of supramolecular structures (hydrodynamic) [1]: 153.2 ± 4.6
- polydispersity index [1]: 0.218
- pIC50 (HCC1937): 5.42
- intensity of calnexin staining (Calnexin): significantly increased
- CHOP protein level (CHOP; 8 µM): enhanced
- CHOP protein level (CHOP; 16 µM): decreased
- CHOP (DDIT3) expression (CHOP; AG-08 treated cells): upregulated in a dose-dependent manner
- cytotoxicity of filtrate after 220 nm filtration (HCC1937 cells): no longer exhibited any cytotoxicity
